Experimental data as given in article PMC5041982, “Small-molecule inhibition of STAT3 in radioresistant head and neck squamous cell carcinoma” (Oncotarget, 2016).
Like-named read-outs stand apart in the source and are kept apart here.

Legend:
Format in all cases: cell-based
pSTAT1 (Tyr-701) = molecular target: T1, pSTAT1 (Tyr-701) (Homo sapiens, UniProt P42224); experiment: Luminex bead-based assay, G-CSF-induced pSTAT1 in Kasumi-1 cells
T1 construct: endogenous in cells; host or cells: Kasumi-1
T1 sequence (P42224 1-750): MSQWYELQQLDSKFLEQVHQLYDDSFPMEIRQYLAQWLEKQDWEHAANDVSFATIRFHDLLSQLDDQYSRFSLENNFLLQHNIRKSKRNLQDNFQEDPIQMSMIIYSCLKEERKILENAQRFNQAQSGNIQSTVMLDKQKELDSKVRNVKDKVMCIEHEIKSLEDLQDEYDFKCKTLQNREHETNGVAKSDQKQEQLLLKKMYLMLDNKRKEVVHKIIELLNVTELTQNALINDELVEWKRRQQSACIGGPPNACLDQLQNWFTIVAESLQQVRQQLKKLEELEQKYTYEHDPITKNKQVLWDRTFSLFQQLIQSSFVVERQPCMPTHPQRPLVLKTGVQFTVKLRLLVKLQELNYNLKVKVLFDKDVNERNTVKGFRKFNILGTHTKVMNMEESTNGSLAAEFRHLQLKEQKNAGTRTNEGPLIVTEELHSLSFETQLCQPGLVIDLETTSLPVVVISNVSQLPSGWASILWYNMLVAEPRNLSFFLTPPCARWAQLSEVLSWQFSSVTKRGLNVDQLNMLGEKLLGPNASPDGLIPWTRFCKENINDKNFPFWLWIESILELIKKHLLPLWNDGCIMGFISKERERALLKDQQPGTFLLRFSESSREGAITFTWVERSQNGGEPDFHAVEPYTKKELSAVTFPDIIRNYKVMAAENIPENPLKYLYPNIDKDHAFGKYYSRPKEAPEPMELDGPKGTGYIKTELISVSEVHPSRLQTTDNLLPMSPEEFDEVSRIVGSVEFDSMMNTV
Procedure: The equilibrium binding levels obtained ± compound were normalized (resonance obtained in the presence of compound ÷ the resonance obtained in the absence of compound × 100) and plotted against Log [nM] […] B. Inhibition of ligand-stimulated STAT phosphorylation, measured by phosphoflow. Serum-starved (1 hour) Kasumi-1 cells, pre-incubated with compound/DMSO (1 hour), were treated with G-CSF (10 ng/ml, 15 min, left two panels) or IFN-γ (10ng/ml, 15 min, right panel). Cells were permeabilized and stained with Alexa647-pSTAT3, and PE-pSTAT1 antibodies and analyzed on BD LSR2. FCS files were uploaded to Cytobank for pSTAT3 and pSTAT1 quantitation. Histograms depicting pSTAT3 and pSTAT1 levels are shown. C. Mean fluorescence (pSTAT3/1) levels were plotted as function the Log [M] compound, and IC50 calculated using GraphPad. […] D. Inhibition of ligand-stimulated STAT phosphorylation, measured by Luminex. Serum-starved (1 hour) Kasumi-1 cells, pre-incubated with compound/DMSO (0/0.1/0.3/1/3/10/100 μM, 1 hour), were treated with G-CSF (10 ng/ml, 15′). Total protein extracts of cells were assayed for pSTAT3, pSTAT1, and GAPDH levels by Luminex. […] These values were plotted as a function of Log [M] compound, and IC50 values calculated using GraphPad. […]
for analysis as described below. were determined by plotting % maximum response as a 3-D pharmacophore generation function of log concentration of compound and fitting the Each molecular chemical feature, including experimental points to a competitive binding model using hydrogen bond donor, hydrogen bond acceptor, positive a four parameter logistic equation: R = Rhigh − (Rhigh − R low)/ (1 + conc/A1)^A2, where R = percent response at and negative ionizable group, and hydrophobic region, inhibitor concentration, R = percent response with no was generated using the LigandScout application compound, R= percent response at highest compound high framework and projected into 3-D space. concentration, A2 = fitting parameter (slope) and A1 = low Feature-pairing IC50 (BIAevaluation Software version 4.1). […]

UM-SCC-17B cells = experiment: Anchorage dependent growth (MTT); conditions: Homo sapiens, 48 hrs
Procedure: (§1) GAPDH-normalized pSTAT3 or pSTAT1 values were divided by that for untreated cells and expressed in percentage. These values were plotted as a function of Log [M] compound, and IC50 values calculated using GraphPad. […] Viable cells quantitated using MTT. Relative % viability was measured by (viability after any treatment ÷ viability of untreated cells × 100) and plotted as a function of Log [M] […] C. […] Representative curves are shown.
(§2) Cells were cultured in triplicates in complete DMEM ± drug, in ultra-low attachment 96 well plates for 72 hrs or cell-culture treated plates for 48 hrs and viable cells were quantitated using MTT. Optical density (OD) was measured at 590 nm using a 96-well multi-scanner (EL-800 universal microplate reader, BioTek Inc, VT, USA). Relative % viability (viability after any treatment ÷ viability of untreated cells × 100) was plotted along Y-axis. At least 2 replicates experiments were performed and were used for IC50 calculation using GraphPad software.

HNSCC cell lines = experiment: Anchorage independent growth (MTT), all four cell lines; conditions: Homo sapiens; SCC-35, SCC-61, UM-SCC-17B, HN30; read-out: Anchorage independent growth IC50, range over all four cell lines
Procedure: as §1, §2

pSTAT1 = molecular target: T2, pSTAT1 (Homo sapiens, UniProt P42224); experiment: Constitutive pSTAT1 in HNSCC cell lines (Luminex); parameters: endogenous in cells; host or cells: UM-SCC-17B, SCC-61, HN30, SCC-35
T2 sequence (P42224 1-750): T1 sequence (P42224 1-750)

Work on `COc1ccc(S(=O)(=O)Nc2cc(-c3c(O)ccc4ccccc34)c(O)c3ccccc23)cc1` [Compound C188-9] yielded an IC50 (pSTAT1 (Tyr-701); Figure 2D, Kasumi-1, G-CSF, read-out: Luminex pSTAT1 (Tyr-701) IC50, representative experiment) of 3 µM, an IC50 (pSTAT1 (Tyr-701); Kasumi-1, mean, n ≥ 2, read-out: G-CSF Induced Phosphorylation (Luminex) pSTAT1 IC50) of 4.1 ± 3.3 µM and an IC50 (UM-SCC-17B cells; mean, read-out: Anchorage dependent growth (MTT) IC50) of 3.2 ± 0.6 µM. The IC50 (UM-SCC-17B cells; Figure 4B, read-out: Anchorage Dependent growth IC50, representative experiment) was 2.7 µM, the IC50 (HNSCC cell lines) was 0.7 to 14.8 µM and the IC50 (pSTAT1; HN30, 36 hrs) was 5 ± 6 µM. It also gave an IC50 (pSTAT1; SCC-61, 36 hrs) of 28.5 ± 0.9 µM and an IC50 (pSTAT1; UM-SCC-17B) of 19.1 ± 15.5 µM.
